Experiments:
Format in all cases: biochemical
human Src enzyme = molecular target: T1, human Src enzyme (Homo sapiens, UniProt P12931); assay: Src enzyme inhibitory activity (time-resolved fluorometry, biotinylated peptide phosphorylation); details: biotinylated peptide phosphorylation, read-out: SRC_IC50
T1 construct: purchased Carna Biosciences, Inc. 08-173
Method in brief: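 Compounds were tested for blocking tyrosine phosphorylation of a biotinylated peptide substrate by recombinant human Src. Phosphorylated product was quantified by time-resolved fluorometry using europium cryptate and XL665 conjugates, and IC50 was calculated against the compound-free control.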

human Yes1 enzyme = molecular target: T2, human Yes1 enzyme (Homo sapiens, UniProt P07947); assay: Yes1 enzyme inhibitory activity (time-resolved fluorometry, biotinylated peptide phosphorylation); details: biotinylated peptide phosphorylation, read-out: YES_IC50
T2 construct: made in house
T2 sequence (P07947 whole entry): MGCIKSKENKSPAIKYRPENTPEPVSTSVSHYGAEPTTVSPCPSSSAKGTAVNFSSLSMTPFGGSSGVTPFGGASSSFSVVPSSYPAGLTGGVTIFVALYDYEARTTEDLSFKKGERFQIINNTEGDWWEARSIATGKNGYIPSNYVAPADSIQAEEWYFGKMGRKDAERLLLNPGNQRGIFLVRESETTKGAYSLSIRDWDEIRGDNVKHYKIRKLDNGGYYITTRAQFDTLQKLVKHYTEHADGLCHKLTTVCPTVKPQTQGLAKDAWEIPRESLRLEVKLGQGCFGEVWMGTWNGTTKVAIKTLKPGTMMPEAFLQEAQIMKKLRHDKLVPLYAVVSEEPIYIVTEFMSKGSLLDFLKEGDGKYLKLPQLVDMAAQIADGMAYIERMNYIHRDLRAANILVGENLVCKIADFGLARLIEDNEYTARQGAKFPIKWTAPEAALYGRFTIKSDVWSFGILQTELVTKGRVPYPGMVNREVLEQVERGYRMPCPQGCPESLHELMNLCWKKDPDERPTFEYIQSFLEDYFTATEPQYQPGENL
Method in brief: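 Inhibition was expressed against a compound-free control to give IC50, using TR-FRET read-out (Eu-cryptate anti-pTyr antibody, streptavidin-XL665).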

human Lck enzyme = molecular target: T3, human Lck enzyme (Homo sapiens, UniProt P06239); assay: Lck enzyme inhibitory activity (time-resolved fluorometry, biotinylated peptide phosphorylation); details: biotinylated peptide phosphorylation, read-out: LCK_IC50
T3 construct: purchased Carna Biosciences, Inc. 08-170
T3 sequence (P06239 whole entry): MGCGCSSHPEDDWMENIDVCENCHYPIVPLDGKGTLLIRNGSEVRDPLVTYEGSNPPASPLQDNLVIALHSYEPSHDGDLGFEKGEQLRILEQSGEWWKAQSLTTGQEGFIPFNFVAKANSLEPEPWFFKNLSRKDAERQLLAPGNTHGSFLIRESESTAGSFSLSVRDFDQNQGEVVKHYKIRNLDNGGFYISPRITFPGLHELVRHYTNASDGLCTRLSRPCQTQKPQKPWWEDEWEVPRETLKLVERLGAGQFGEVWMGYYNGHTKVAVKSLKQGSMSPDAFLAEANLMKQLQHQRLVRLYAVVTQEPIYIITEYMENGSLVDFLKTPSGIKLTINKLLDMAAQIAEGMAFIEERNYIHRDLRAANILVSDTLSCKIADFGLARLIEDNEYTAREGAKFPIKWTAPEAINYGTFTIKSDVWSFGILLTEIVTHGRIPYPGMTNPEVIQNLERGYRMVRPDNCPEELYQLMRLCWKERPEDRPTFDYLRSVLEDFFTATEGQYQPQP
Method in brief: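 Readout pairs a europium cryptate-labelled anti-phosphotyrosine antibody with XL665-streptavidin, measured by time-resolved fluorescence. IC50 derived from percent inhibition against untreated controls.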

T1 sequence (P12931 whole entry): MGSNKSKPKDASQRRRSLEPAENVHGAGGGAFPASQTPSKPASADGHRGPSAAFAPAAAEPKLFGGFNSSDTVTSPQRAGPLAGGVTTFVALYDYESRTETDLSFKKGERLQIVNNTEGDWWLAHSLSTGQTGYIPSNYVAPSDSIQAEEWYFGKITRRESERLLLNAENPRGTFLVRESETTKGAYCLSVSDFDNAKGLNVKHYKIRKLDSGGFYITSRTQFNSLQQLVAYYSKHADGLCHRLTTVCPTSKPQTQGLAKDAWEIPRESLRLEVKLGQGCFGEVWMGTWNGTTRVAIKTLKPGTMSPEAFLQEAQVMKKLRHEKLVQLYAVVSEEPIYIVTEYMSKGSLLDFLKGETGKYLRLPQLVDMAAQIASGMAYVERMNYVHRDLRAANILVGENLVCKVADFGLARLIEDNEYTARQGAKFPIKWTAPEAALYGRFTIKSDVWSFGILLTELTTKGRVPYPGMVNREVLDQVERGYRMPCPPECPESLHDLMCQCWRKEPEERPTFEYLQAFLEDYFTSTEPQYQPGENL

IC50 (human Src enzyme) [nM] | IC50 (human Yes1 enzyme) [nM] | IC50 (human Lck enzyme) [nM] | Structure (SMILES)
9.5 | 0.38 | 2.6 | Cc1cc(Oc2ccccc2F)ncc1-n1ncc(C(=O)c2cc3cc(NS(C)(=O)=O)c(Cl)cc3[nH]2)c1N [Example 4-2-096, N-[2-[5-amino-1-[6-(2-fluorophenoxy)-4-methylpyridin-3-yl]pyrazole-4-carbonyl]-6-chloro-1H-indol-5-yl]methanesulfonamide]
8.1 | 0.28 | 1.8 | Cc1cc(Oc2ccccc2F)ccc1-n1ncc(C(=O)c2cc3cc(NS(C)(=O)=O)c(F)cc3[nH]2)c1N [Example 4-2-097, N-[2-[5-amino-1-[4-(2-fluorophenoxy)-2-methylphenyl]pyrazole-4-carbonyl]-6-fluoro-1H-indol-5-yl]methanesulfonamide]
15 | 0.39 | 2.5 | Cc1cc(Oc2cccc(F)c2F)ccc1-n1ncc(C(=O)c2cc3cc(NS(C)(=O)=O)c(F)cc3[nH]2)c1N [Example 4-2-098, N-[2-[5-amino-1-[4-(2,3-difluorophenoxy)-2-methylphenyl]pyrazole-4-carbonyl]-6-fluoro-1H-indol-5-yl]methanesulfonamide]
15 | 0.61 | 2.8 | Cc1cc(Oc2ccccc2F)cc(F)c1-n1ncc(C(=O)c2cc3cc(NS(C)(=O)=O)c(F)cc3[nH]2)c1N [Example 4-2-099, N-[2-[5-amino-1-[2-fluoro-4-(2-fluorophenoxy)-6-methylphenyl]pyrazole-4-carbonyl]-6-fluoro-1H-indol-5-yl]methanesulfonamide]
27 | 0.73 | 2.1 | Cc1cc(Oc2cccc(F)c2F)cc(F)c1-n1ncc(C(=O)c2cc3cc(NS(C)(=O)=O)c(F)cc3[nH]2)c1N [Example 4-2-100, N-[2-[5-amino-1-[4-(2,3-difluorophenoxy)-2-fluoro-6-methylphenyl]pyrazole-4-carbonyl]-6-fluoro-1H-indol-5-yl]methanesulfonamide]
50 | 0.74 | 2.9 | Cc1cc(Oc2cc(F)ccc2F)cc(F)c1-n1ncc(C(=O)c2cc3cc(NS(C)(=O)=O)c(F)cc3[nH]2)c1N [Example 4-2-101, N-[2-[5-amino-1-[4-(2,5-difluorophenoxy)-2-fluoro-6-methylphenyl]pyrazole-4-carbonyl]-6-fluoro-1H-indol-5-yl]methanesulfonamide]
48 | 0.89 | 3.9 | Cc1cc(Oc2ccccc2Cl)cc(F)c1-n1ncc(C(=O)c2cc3cc(NS(C)(=O)=O)c(F)cc3[nH]2)c1N [Example 4-2-102, N-[2-[5-amino-1-[4-(2-chlorophenoxy)-2-fluoro-6-methylphenyl]pyrazole-4-carbonyl]-6-fluoro-1H-indol-5-yl]methanesulfonamide]
7 | 0.41 | 0.97 | Cc1cc(Oc2ccccc2)cc(F)c1-n1ncc(C(=O)c2cc3cc(NS(C)(=O)=O)c(F)cc3[nH]2)c1N [Example 4-2-103, N-[2-[5-amino-1-(2-fluoro-6-methyl-4-phenoxyphenyl)pyrazole-4-carbonyl]-6-fluoro-1H-indol-5-yl]methanesulfonamide]
22 | 0.56 | 1.9 | Cc1cc(Oc2ccccc2F)ncc1-n1ncc(C(=O)c2cc3cc(NS(C)(=O)=O)c(F)cc3[nH]2)c1N [Example 4-2-104, N-[2-[5-amino-1-[6-(2-fluorophenoxy)-4-methylpyridin-3-yl]pyrazole-4-carbonyl]-6-fluoro-1H-indol-5-yl]methanesulfonamide]
100 | 0.36 | 24 | Cc1cc2cc(C(=O)c3cnn(-c4ccc(Oc5ccccc5F)cc4C)c3N)[nH]c2cc1NS(=O)(=O)N1CCOCC1 [Example 4-2-105, N-[2-[5-amino-1-[4-(2-fluorophenoxy)-2-methylphenyl]pyrazole-4-carbonyl]-5-methyl-1H-indol-6-yl]morpholine-4-sulfonamide]
180 | 1.4 | 51 | Cc1cc2cc(C(=O)c3cnn(-c4ccc(Oc5cccc(F)c5F)cc4C)c3N)[nH]c2cc1NS(=O)(=O)N1CCOCC1 [Example 4-2-106, N-[2-[5-amino-1-[4-(2,3-difluorophenoxy)-2-methylphenyl]pyrazole-4-carbonyl]-5-methyl-1H-indol-6-yl]morpholine-4-sulfonamide]
250 | 2.4 | 89 | Cc1cc2cc(C(=O)c3cnn(-c4c(C)cc(Oc5ccccc5F)cc4F)c3N)[nH]c2cc1NS(=O)(=O)N1CCOCC1 [Example 4-2-107, N-[2-[5-amino-1-[2-fluoro-4-(2-fluorophenoxy)-6-methylphenyl]pyrazole-4-carbonyl]-5-methyl-1H-indol-6-yl]morpholine-4-sulfonamide]
94 | 1 | 31 | Cc1cc2cc(C(=O)c3cnn(-c4cnc(Oc5ccccc5F)cc4C)c3N)[nH]c2cc1NS(=O)(=O)N1CCOCC1 [Example 4-2-108, N-[2-[5-amino-1-[6-(2-fluorophenoxy)-4-methylpyridin-3-yl]pyrazole-4-carbonyl]-5-methyl-1H-indol-6-yl]morpholine-4-sulfonamide]
210 | 1.9 | 45 | Cc1cc2cc(C(=O)c3cnn(-c4cnc(Oc5c(F)cccc5F)cc4C)c3N)[nH]c2cc1NS(=O)(=O)N1CCOCC1 [Example 4-2-109, N-[2-[5-amino-1-[6-(2,6-difluorophenoxy)-4-methylpyridin-3-yl]pyrazole-4-carbonyl]-5-methyl-1H-indol-6-yl]morpholine-4-sulfonamide]
250 | 8.7 | 110 | Cc1cc2cc(C(=O)c3cnn(-c4cnc(Oc5ccccc5Cl)cc4C)c3N)[nH]c2cc1NS(=O)(=O)N1CCOCC1 [Example 4-2-110, N-[2-[5-amino-1-[6-(2-chlorophenoxy)-4-methylpyridin-3-yl]pyrazole-4-carbonyl]-5-methyl-1H-indol-6-yl]morpholine-4-sulfonamide]
690 | 41 | 320 | Cc1cc2cc(C(=O)c3cnn(-c4cnc(Oc5cccc(Cl)c5)cc4C)c3N)[nH]c2cc1NS(=O)(=O)N1CCOCC1 [Example 4-2-111, N-[2-[5-amino-1-[6-(3-chlorophenoxy)-4-methylpyridin-3-yl]pyrazole-4-carbonyl]-5-methyl-1H-indol-6-yl]morpholine-4-sulfonamide]
23 | 0.93 | 8.3 | Cc1cc2cc(C(=O)c3cnn(-c4ccc(Oc5ccccc5F)cc4C)c3N)[nH]c2cc1N1CCCS1(=O)=O [Example 4-2-112, [5-amino-1-[4-(2-fluorophenoxy)-2-methylphenyl]pyrazol-4-yl]-[6-(1,1-dioxo-1,2-thiazolidin-2-yl)-5-methyl-1H-indol-2-yl]methanone]
18 | 0.63 | 7.1 | Cc1cc2cc(C(=O)c3cnn(-c4ccc(Oc5cccc(F)c5F)cc4C)c3N)[nH]c2cc1N1CCCS1(=O)=O [Example 4-2-113, [5-amino-1-[4-(2,3-difluorophenoxy)-2-methylphenyl]pyrazol-4-yl]-[6-(1,1-dioxo-1,2-thiazolidin-2-yl)-5-methyl-1H-indol-2-yl]methanone]

From patent US10479780B2, “Aminopyrazole derivatives” (Chugai Seiyaku Kabushiki Kaisha, priority 2015, dated 2019)
